From publication PMC11230938 (2024) come the findings set out here.

Assay [1] deals with OTC2 (DNA, aptamer) GACGACGCAATGTCCTTCGCAGGATCCGTTTACGGTGTCGTC
Briefly: ITC. Particulars: 50 mM NaCl, 2 mM MgCl2; 10 mM MES pH 6.0, 25 °C; 9 μM aptamer, 150 μM OTC.

For assay [2], the system named is OTC22 (DNA, aptamer) GACGACAAAGCGTCTTACGTGCATACTTTTGTTGTCGTC
The assay can be described thus: ITC. Conditions: 50 mM NaCl, 2 mM MgCl2; 10 mM MES pH 6.0, 25 °C; 9 μM aptamer, 150 μM OTC.

Assay [3] relates to OTC43 (DNA, aptamer) GACGACTGGACCCTTCTGTGGTAGATTCTATCTAATGTCGTC
The assay can be described thus: ITC. Particulars: 50 mM NaCl, 2 mM MgCl2; 10 mM MES pH 6.0, 25 °C; 9 μM aptamer, 150 μM OTC.

Assay [4] relates to OTC2 (DNA, aptamer) GACGACGCAATGTCCTTCGCAGGATCCGTTTACGGTGTCGTC
Briefly: intrinsic fluorescence titration of OTC. Conditions: 50 mM NaCl, 2 mM MgCl2; 10 mM MES pH 6.0; 100 nM OTC; 12 min equilibration per addition (0.57 μM after 1 min).

For assay [5], the system named is OTC22 (DNA, aptamer) GACGACAAAGCGTCTTACGTGCATACTTTTGTTGTCGTC
Briefly: intrinsic fluorescence titration of OTC. Conditions: 50 mM NaCl, 2 mM MgCl2; 10 mM MES pH 6.0; 100 nM OTC; 1 min equilibration.

The subject of assay [6] is OTC43 (DNA, aptamer) GACGACTGGACCCTTCTGTGGTAGATTCTATCTAATGTCGTC
The assay can be described thus: intrinsic fluorescence titration of OTC. Particulars: 50 mM NaCl, 2 mM MgCl2; 10 mM MES pH 6.0; 100 nM OTC; 1 min equilibration.

Assay [7] deals with OTC8 (DNA, aptamer) GACGACGGGCAAGATCTATTCTTCACGTTCACCTTTGTCGTC
The assay can be described thus: intrinsic fluorescence titration of OTC. Conditions: 50 mM NaCl, 2 mM MgCl2; 10 mM MES pH 6.0; 100 nM OTC; 1 min equilibration.

Assay [8] deals with OTC11 (DNA, aptamer) GACGACGCAGACATCTTGTGTGTCATAGCGCGCTACGTCGTC
The assay can be described thus: intrinsic fluorescence titration of OTC. Particulars: 50 mM NaCl, 2 mM MgCl2; 10 mM MES pH 6.0; 100 nM OTC; 1 min equilibration.

For assay [9], the system named is OTC23 (DNA, aptamer) GACGACGTGCTATTGCCTCAGTCATTCTCTGAGTCGTCGTC
The assay can be described thus: intrinsic fluorescence titration of OTC. Conditions: 50 mM NaCl, 2 mM MgCl2; 10 mM MES pH 6.0; 100 nM OTC; 1 min equilibration.

Assay [10] has as its system OTC26 (DNA, aptamer) GACGACATAGCTTGCTACCACTCGTCTCCGTAGTGGCAGTCGTC
The assay can be described thus: intrinsic fluorescence titration of OTC. Particulars: 50 mM NaCl, 2 mM MgCl2; 10 mM MES pH 6.0; 100 nM OTC; 1 min equilibration.

Assay [11] concerns OTC34 (DNA, aptamer) GACGACGCAGTCTGATTTCAGCCATAGTTTTACTGCGTCGTC
The assay can be described thus: intrinsic fluorescence titration of OTC. Particulars: 50 mM NaCl, 2 mM MgCl2; 10 mM MES pH 6.0; 100 nM OTC; 1 min equilibration.

Molecules are shown by their SMILES.

On to `CN(C)[C@@H]1C(=O)C(C(N)=O)=C(O)[C@@]2(O)C(=O)C3=C(O)c4c(O)cccc4[C@@](C)(O)[C@H]3[C@H](O)[C@@H]12`, for which the Kd in [1] is 62 ± 20 nM; in assay [2] it was 490 ± 110 nM; in [3] it was 1600 ± 570 nM; in [4] it was 81 nM; in [5], 290 nM; in assay [6], 690 nM. For the same compound, the Kd is 200 nM in [7]; 320 nM in assay [8]; 360 nM in assay [9]; 590 nM in assay [10]; 530 nM in assay [11].
